Test results reported in article PMC11735596, “Sulfoquinovosyl diacylglycerol, a component of Holy Basil Ocimum tenuiflorum, inhibits the activity of the SARS-CoV-2 main protease and viral replication in vitro” (Journal of Natural Medicines, 2024).
pEC50: −log10 of the molar value.

What was measured:
[1] = system: SARS-CoV-2 (WK-521 strain); test: Anti-SARS-CoV-2 assay in infected VeroE6/TMPRSS2 cells (tetrazolium dye method); conditions: for Protection of infected cells from virus-induced cell death (in words): MOI 0.002, 3 days
[2] = system: SARS-CoV-2 spike S1 and ACE2; parameters: method as in PMID 34677731; conditions: cited from earlier work
in vitro = conditions: African green monkey

CC/C=C\C/C=C\C/C=C\CCCCCCCC(=O)OC [Compound 5, Methyl linolenate, reference compound]
Protection of infected cells from virus-induced cell death (in words) [1]: inhibited cell death caused by SARS-CoV-2 in a concentration-dependent manner

CC/C=C\C/C=C\C/C=C\CCCCCCCC(=O)OC[C@H](CO[C@@H]1O[C@H](CO[C@H]2O[C@H](CO)[C@H](O)[C@H](O)[C@H]2O)[C@H](O)[C@H](O)[C@H]1O)OC(=O)CCCCCCC/C=C\C/C=C\C/C=C\CC [Compound 2, 1,2-di-(9Z,12Z,15Z-octadecatrienoyl)-3-O-(α-D-galactosyl-1-6-β-D-galactosyl)-sn-glycerol]
Protection of infected cells from virus-induced cell death (in words) [1]: inhibited cell death caused by SARS-CoV-2 in a concentration-dependent manner

C=CCc1ccc(O)c(OC)c1 [eugenol]
Effect on interaction between SARS-CoV-2 spike S1 and ACE2 (in words) [2]: inhibited the interaction between SARS-CoV-2 spike S1 and ACE2

CC/C=C\C/C=C\C/C=C\CCCCCCCC(=O)OC[C@H](CO[C@H]1O[C@H](CS(=O)(=O)O)[C@@H](O)[C@H](O)[C@H]1O)OC(=O)CCCCCCC/C=C\C/C=C\C/C=C\CC [Compound 1, 1,2-di-(9Z,12Z,15Z-octadecatrienoyl)-3-(6′-sulfo-α-D-quinovosyl)-sn-glycerol]
CC50 (in vitro): > 100 µM | Protection of infected cells from virus-induced cell death (in words) [1]: dose-dependent protection | pEC50 ([1]; read-out: EC50, suppression of SARS-CoV-2 replication, MOI 0.002, 3 days): 4.29 | Cytotoxicity (in words) (VeroE6/TMPRSS2 cells): did not show apparent cytotoxicity
